Test results reported in US12331044B2, “Inhibitors of histone deacetylase useful for the treatment or prevention of HIV infection” (Merck Sharp & Dohme LLC, priority 2018, dated 2025).
Like-named read-outs stand apart in the source and are kept apart here.

Assays:
human HDAC2 = human HDAC2 (Homo sapiens (Human), UniProt Q92769); assay: HDAC2 inhibition assay (modified FLUOR DE LYS, 384-well); format: biochemical; settings: 40 μM substrate BML-KI104, 3 h pre-incubation, read-out: HDAC2 IC50
[1] = molecular target: T1, human HDAC3/SMRT heterodimer (Homo sapiens (Human), UniProt O15379); assay: biochemical
KARN cells (Jurkat 2C4) = settings: luciferase induction, 2 μM SAHA = 100%
human HDAC1 [2] = molecular target: T2, human HDAC1 (Homo sapiens (Human), UniProt Q13547); assay: biochemical
human HDAC8 = human HDAC8 (Homo sapiens (Human), UniProt Q9BY41); assay: HDAC8 inhibition assay (modified FLUOR DE LYS, 384-well); format: biochemical; settings: 200 μM substrate BML-KI178, 3 h pre-incubation, read-out: HDAC8 IC50
HDAC6 [3] = molecular target: T3, HDAC6 (Homo sapiens (Human), UniProt Q9UBN7); assay: biochemical
human HDAC1 [4] = molecular target: T2, human HDAC1
HDAC6 [5] = molecular target: T3, HDAC6
[6] = molecular target: T1, human HDAC3/SMRT heterodimer
[7] = read-out: Karn EC50 nM 0.1% NHS, 0.1% normal human serum
[8] = read-out: Karn EC50 nM 5% NHS, 5% normal human serum

T3 sequence (Q9UBN7 whole entry): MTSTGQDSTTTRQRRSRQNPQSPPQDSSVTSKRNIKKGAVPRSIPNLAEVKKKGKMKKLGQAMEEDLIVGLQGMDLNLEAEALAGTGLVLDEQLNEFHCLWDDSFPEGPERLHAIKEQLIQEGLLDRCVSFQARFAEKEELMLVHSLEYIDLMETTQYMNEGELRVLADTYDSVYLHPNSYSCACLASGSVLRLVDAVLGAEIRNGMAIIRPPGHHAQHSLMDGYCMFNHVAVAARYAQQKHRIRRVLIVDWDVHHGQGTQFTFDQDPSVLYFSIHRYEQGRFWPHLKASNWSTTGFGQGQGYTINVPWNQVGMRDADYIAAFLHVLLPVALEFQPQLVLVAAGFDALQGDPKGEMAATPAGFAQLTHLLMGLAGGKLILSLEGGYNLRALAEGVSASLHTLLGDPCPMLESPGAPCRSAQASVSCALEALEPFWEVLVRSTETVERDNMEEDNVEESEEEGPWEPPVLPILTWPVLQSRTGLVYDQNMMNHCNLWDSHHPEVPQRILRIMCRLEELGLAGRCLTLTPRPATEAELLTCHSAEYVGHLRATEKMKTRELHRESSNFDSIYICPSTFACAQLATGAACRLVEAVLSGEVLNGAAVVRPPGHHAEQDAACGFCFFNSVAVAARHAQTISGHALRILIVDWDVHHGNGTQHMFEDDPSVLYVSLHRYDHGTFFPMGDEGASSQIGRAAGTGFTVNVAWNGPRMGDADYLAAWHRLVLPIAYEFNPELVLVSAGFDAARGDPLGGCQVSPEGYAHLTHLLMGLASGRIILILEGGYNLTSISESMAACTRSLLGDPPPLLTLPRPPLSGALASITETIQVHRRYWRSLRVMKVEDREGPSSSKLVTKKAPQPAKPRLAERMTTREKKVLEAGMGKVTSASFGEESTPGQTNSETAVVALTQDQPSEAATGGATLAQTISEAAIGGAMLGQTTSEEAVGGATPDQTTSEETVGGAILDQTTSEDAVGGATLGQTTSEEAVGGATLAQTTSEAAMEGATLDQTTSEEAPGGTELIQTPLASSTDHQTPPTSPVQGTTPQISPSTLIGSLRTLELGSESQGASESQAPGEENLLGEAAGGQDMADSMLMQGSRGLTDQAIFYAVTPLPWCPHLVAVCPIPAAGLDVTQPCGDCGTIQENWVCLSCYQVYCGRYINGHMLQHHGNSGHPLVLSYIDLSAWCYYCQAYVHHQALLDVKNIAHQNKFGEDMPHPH
T2 sequence (Q13547 whole entry): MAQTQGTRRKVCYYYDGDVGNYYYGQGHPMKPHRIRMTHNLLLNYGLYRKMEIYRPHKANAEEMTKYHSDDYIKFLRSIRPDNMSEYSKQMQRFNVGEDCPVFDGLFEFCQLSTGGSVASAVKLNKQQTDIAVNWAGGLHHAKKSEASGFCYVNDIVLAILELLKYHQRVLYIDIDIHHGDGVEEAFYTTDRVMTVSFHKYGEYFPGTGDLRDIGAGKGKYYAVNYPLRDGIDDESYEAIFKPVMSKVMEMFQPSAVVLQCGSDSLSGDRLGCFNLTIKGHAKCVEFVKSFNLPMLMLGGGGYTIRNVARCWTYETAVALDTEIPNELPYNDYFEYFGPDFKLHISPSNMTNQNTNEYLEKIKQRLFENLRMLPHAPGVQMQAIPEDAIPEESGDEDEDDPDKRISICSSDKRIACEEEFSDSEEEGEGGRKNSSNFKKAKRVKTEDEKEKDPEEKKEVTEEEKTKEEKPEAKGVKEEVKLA
Chain of human HDAC2 (Q92769 whole entry): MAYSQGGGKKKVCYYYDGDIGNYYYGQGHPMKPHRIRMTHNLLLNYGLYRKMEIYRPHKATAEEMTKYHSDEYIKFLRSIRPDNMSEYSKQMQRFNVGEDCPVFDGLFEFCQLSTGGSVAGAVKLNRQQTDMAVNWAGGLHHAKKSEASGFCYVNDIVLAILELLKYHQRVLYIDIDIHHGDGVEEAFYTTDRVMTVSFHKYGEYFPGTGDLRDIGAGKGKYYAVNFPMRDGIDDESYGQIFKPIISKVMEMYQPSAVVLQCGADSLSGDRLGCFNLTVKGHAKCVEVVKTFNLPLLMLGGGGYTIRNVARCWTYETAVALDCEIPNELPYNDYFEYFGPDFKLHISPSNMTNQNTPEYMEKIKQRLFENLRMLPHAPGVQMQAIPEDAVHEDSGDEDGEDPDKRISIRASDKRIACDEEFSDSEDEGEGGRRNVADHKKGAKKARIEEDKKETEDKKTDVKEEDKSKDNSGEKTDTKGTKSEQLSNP
T1 sequence (O15379 whole entry): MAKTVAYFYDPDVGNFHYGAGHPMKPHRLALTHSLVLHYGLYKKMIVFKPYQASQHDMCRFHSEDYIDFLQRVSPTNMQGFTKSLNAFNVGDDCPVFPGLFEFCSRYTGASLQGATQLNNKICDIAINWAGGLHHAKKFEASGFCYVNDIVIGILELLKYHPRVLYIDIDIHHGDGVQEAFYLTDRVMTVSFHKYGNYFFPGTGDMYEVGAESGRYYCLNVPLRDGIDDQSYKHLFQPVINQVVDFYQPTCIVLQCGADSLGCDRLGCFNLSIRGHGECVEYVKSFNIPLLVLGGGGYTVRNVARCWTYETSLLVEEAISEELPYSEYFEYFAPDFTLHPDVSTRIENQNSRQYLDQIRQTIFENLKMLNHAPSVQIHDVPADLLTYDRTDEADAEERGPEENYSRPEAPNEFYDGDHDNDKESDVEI
T1 sequence (Q9Y618 1-899 partner): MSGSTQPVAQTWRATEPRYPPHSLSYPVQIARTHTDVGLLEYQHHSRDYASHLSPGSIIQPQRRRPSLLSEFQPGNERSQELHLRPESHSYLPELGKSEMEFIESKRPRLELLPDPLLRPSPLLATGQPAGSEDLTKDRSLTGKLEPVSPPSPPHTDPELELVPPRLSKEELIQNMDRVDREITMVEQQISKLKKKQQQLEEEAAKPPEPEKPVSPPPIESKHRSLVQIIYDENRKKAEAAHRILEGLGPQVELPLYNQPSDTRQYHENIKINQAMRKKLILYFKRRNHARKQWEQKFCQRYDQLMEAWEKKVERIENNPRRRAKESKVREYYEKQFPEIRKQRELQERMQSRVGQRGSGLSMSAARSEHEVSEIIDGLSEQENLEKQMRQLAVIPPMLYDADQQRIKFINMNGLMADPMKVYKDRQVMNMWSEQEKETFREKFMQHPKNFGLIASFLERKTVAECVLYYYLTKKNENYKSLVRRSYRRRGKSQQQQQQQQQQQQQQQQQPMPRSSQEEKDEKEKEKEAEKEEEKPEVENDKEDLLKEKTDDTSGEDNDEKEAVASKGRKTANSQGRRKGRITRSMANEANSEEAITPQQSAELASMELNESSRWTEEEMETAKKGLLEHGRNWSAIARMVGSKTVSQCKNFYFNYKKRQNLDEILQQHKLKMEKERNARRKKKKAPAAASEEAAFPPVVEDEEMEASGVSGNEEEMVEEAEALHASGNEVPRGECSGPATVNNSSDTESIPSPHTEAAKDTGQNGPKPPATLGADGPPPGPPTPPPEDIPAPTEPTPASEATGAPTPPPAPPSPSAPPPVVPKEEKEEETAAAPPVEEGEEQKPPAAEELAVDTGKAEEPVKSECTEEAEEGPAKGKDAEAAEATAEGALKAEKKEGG
Chain of human HDAC8 (Q9BY41 whole entry): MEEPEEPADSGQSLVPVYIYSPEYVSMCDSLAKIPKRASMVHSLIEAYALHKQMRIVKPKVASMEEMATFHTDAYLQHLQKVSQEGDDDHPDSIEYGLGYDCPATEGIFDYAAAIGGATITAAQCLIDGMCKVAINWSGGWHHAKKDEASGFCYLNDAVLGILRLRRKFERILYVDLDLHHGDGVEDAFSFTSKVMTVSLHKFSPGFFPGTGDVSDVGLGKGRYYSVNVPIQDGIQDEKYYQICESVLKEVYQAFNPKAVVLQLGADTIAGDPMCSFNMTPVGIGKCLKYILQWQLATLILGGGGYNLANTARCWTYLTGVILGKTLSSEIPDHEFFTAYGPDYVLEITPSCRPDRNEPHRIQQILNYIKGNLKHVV

| Structure (SMILES) | IC50 (human HDAC2; […] nM enzyme) [nM] | IC50 [1] [µM] | EC50 (KARN cells (Jurkat 2C4); [7]) [nM] | EC50 (KARN cells (Jurkat 2C4); [8]) [nM] | IC50 (human HDAC1 [2]) [µM] | IC50 (human HDAC8; […] nM enzyme) [nM] | IC50 (HDAC6 [3]) [µM] | IC50 (human HDAC1 [4]) [µM] | IC50 (human HDAC2; […] enzyme) [nM] | IC50 (HDAC6 [5]) [µM] | IC50 (human HDAC8; […] enzyme) [nM] | IC50 [6] [µM] |
| --- | --- | --- | --- | --- | --- | --- | --- | --- | --- | --- | --- | --- |
| Cc1ccc2cc(-c3cnc([C@H](CCCCCC(=O)c4ncco4)NC(=O)[C@H]4CC45CCN(C)CC5)o3)ccc2n1 [Example 109, (S)-6-methyl-N-((S)-1-(5-(2-methylquinolin-6-yl)oxazol-2-yl)-7-(oxazol-2-yl)-7-oxoheptyl)-6-azaspiro[2.5]octane-1-carboxamide] | 39 | 0.0075 | 1700 | 2500 | 0.0075 | 5000 | 23 | – | – | – | – | – |
| Cc1ccc2cc(-c3cnc(C(CCCCCC(=O)c4ncco4)NC(=O)[C@H]4CC45CCN(C)CC5)o3)ccc2n1 (stereo partly drawn) [Example 111, (1S)-6-methyl-N-(1-(5-(2-methylquinolin-6-yl)oxazol-2-yl)-7-(oxazol-2-yl)-7-oxoheptyl)-6-azaspiro[2.5]octane-1-carboxamide] | – | – | 70 | 48 | – | – | – | 0.00076 | 5.2 | 0.43 | 520 | 0.0014 |
| COc1cc2nc(C)ccc2cc1-c1cnc([C@H](CCCCCC(=O)c2ncco2)NC(=O)C2COCCO2)[nH]1 (stereo partly drawn) [Example 174, N-[(1S)-1-[5-(7-methoxy-2-methylquinolin-6-yl)-1H-imidazol-2-yl]-7-(1,3-oxazol-2-yl)-7-oxoheptyl]-1,4-dioxane-2-carboxamide] | – | – | 37 | 80 | – | – | – | 0.0014 | 3.7 | > 0.9 | 110 | 0.00054 |
